These are literature values, as cited in patent US20260345588A1, “COMBINED AGENTS WITH SYNERGISTIC EFFECTS AGAINST GLIOMAS” (Eberhard Karls Universitaet Tuebingen Medizinische Fakultaet, priority 2023, published 2026).

Usually IC50 stands for the concentration at which inhibition is half-maximal.

SMILES strings stand for the structures. Some results are limits rather than exact numbers.

One series deals with EHMT2. The conditions noted are these: EHMT2 peptide.
A further series has as its system EHMT1. The conditions noted are these: EHMT1 peptide.
Another series deals with Fit3. The conditions noted are these: in words.
Another series relates to Pim1. Conditions: ATP competitive inhibitor; cell-free assay.
The subject of a further series is Pim3. The conditions noted are these: Pim1 versus Pim3.
A further series has as its system haspin. The conditions noted are these: in words.
A further series has as its system Pim2. The conditions noted are these: Pim1 versus Pim2.
The next series relates to Alzheimer's disease. Conditions: phase-IIa clinical trial; treatment discontinued.
The conditions of series [1]: use of tideglusib.

As for `CNCc1cnn(-c2cc(Nc3nc(C)cc(NC)n3)ccc2OC)c1` [EHMT 2-IN-1], the IC50 with EHMT2, in the series on EHMT1 and in the series with cellular EHMT2 was less than 100 nM throughout.
As for `CN1CCC(CNc2ccc3ncc(-c4cccc(OC(F)(F)F)c4)n3n2)CC1` [SGI-1776], in the series on Fit3, the “potency to Fit3” value is recorded as “potent”. Also, the IC50 with Pim1 is […]. Moreover, in the series with Pim3, the “fold selective versus Pim3” value is recorded as […]. Also, the potency to haspin result in the series with haspin is recorded as “potent”. The “fold selective versus Pim2” value in the series with Pim2 is recorded as […].
On to `Cn1nnc2c(C(N)=O)ncn2c1=O` [Temozolomide], for which the injection-site reactions entry (people receiving the solution for infusion) was “injection-site reactions, such as pain, irritation, itching, warmth, swelling and redness, as well as bruising”. Moreover, the side effects entry (people treated with temozolomide) is “nausea (feeling sick), vomiting, constipation, loss of appetite, alopecia (hair loss), headache, fatigue (tired-ness), convulsions (fits), rash, neutropenia or lymphopenia (low white-blood-cell counts), and thrombocytopenia (low blood platelet counts)”.
On to `O=c1sn(-c2cccc3ccccc23)c(=O)n1Cc1ccccc1` [Tideglusib], for which the “clinical efficacy in Alzheimer's disease” value in the series on Alzheimer's disease is “lack of efficacy”. Also, the adverse reactions result in series [1] is “mild-moderate adverse reactions, which included transient increases in serum creatine kinase, ALT—or gGT—diarrhea, nausea, cough, fatigue, and headache”.
